Key:
NFF = assay: Cytotoxicity against human NFF after 72 hrs by SRB assay; format: cell-based
[1] = Solubility of the compound in phosphate buffered saline under neutral condition; format: physicochemical; settings: buffer
[2] = Solubility of the compound in phosphate buffered saline under acidic condition; format: physicochemical; settings: buffer
Mus musculus [3] = assay: Toxicity in Swiss mouse assessed as whole body tremor at 4 to 8 mg/kg measured up to 15 mins post compound administration; format: organism-based; design: dose 4-8 mg/kg; settings: in vivo, 0.25 h
Mus musculus [4] = assay: Toxicity in Swiss mouse assessed as panting at 4 to 8 mg/kg measured up to 15 mins post compound administration; format: organism-based; design: dose 4-8 mg/kg; settings: in vivo, 0.25 h
[5] = Intrinsic clearance in mouse liver microsomes at 1 uM after 60 mins by LC-MS/MS analysis; format: ADME, Microsome; settings: read-out: CLH
[6] = Intrinsic clearance in human liver microsomes at 1 uM after 60 mins by LC-MS/MS analysis; format: ADME; settings: read-out: CLH
[7] = Half life in mouse liver microsomes at 1 uM after 60 mins by LC-MS/MS analysis; format: ADME, Microsome
[8] = Half life in human liver microsomes at 1 uM after 60 mins by LC-MS/MS analysis; format: ADME
[9] = Selectivity ratio of IC50 for chloroquine-sensitive Plasmodium falciparum 3D7 to IC50 for chloroquine and mefloquine-resistant Plasmodium falciparum Dd2; format: functional
[10] = Selectivity index, ratio of IC50 for human NFF to IC50 for chloroquine and mefloquine-resistant Plasmodium falciparum Dd2
[11] = Selectivity index, ratio of IC50 for human NFF to IC50 for chloroquine-sensitive Plasmodium falciparum 3D7
Plasmodium falciparum [12] = assay: Antimalarial activity against chloroquine and mefloquine-resistant Plasmodium falciparum Dd2 assessed as [3H]-hypoxanthine incorporation after 48 hrs by liquid scintillation counting analysis; format: functional
Plasmodium falciparum [13] = assay: Antimalarial activity against chloroquine-sensitive Plasmodium falciparum 3D7 assessed as [3H]-hypoxanthine incorporation after 48 hrs by liquid scintillation counting analysis; format: functional, organism-based
Plasmodium falciparum [14] = assay: Antimalarial activity against chloroquine and mefloquine-resistant Plasmodium falciparum Dd2 assessed as growth inhibition; format: functional
Plasmodium falciparum [15] = assay: Antimalarial activity against chloroquine-sensitive Plasmodium falciparum 3D7 assessed as growth inhibition; format: functional, organism-based
Mus musculus [16] = assay: Toxicity in Swiss mouse assessed as ruffled coat at 16 mg/kg measured up to 2 hrs post compound administration; format: organism-based; design: dose 16 mg/kg; settings: in vivo
Mus musculus [17] = assay: Toxicity in Swiss mouse assessed as lethargy at 16 mg/kg measured up to 2 hrs post compound administration; format: organism-based; design: dose 16 mg/kg; settings: in vivo
Mus musculus [18] = assay: Toxicity in Swiss mouse assessed as whole body tremor at 16 mg/kg measured up to 2 hrs post compound administration; format: organism-based; design: dose 16 mg/kg; settings: in vivo
Mus musculus [19] = assay: Toxicity in Swiss mouse assessed as ruffled coat at 8 mg/kg administered for 4 days; format: organism-based; design: dose 8 mg/kg; settings: in vivo, 96 h
Mus musculus [20] = assay: Toxicity in Swiss mouse assessed as whole body tremor at 8 mg/kg administered for 4 days measured after 1 to 2 hrs of each dose; format: organism-based; design: dose 8 mg/kg; settings: in vivo
Mus musculus [21] = assay: Toxicity in Swiss mouse assessed as swollen conjuctiva of eyes at 4 to 8 mg/kg; format: organism-based; design: dose 4-8 mg/kg; settings: in vivo
Mus musculus [22] = assay: Toxicity in Swiss mouse assessed as orange urine at 4 to 8 mg/kg; format: organism-based; design: dose 4-8 mg/kg; settings: in vivo
Mus musculus [23] = assay: Toxicity in Swiss mouse assessed as difficulty in movement at 4 to 8 mg/kg; format: organism-based; design: dose 4-8 mg/kg; settings: in vivo
Mus musculus [24] = assay: Toxicity in Swiss mouse assessed as whole body tremor at 4 to 8 mg/kg; format: organism-based; design: dose 4-8 mg/kg; settings: in vivo

| Structure (SMILES) | IC50 (NFF) [nM] | solubility [1] | solubility [2] | microsomal CLint at 1 µM [5] [µL/min/mg] | microsomal CLint at 1 µM [6] [µL/min/mg] | half-life at 1 µM [7] [h] | half-life at 1 µM [8] [h] | Ratio IC50 [9] | Ratio IC50 [10] | Ratio IC50 [11] | IC50 (Plasmodium falciparum [12]) [nM] | IC50 (Plasmodium falciparum [13]) [nM] | other results |
| --- | --- | --- | --- | --- | --- | --- | --- | --- | --- | --- | --- | --- | --- |
| CCN(CC)CCCC(C)Nc1ccnc2cc(Cl)ccc12 (configuration not stated) [CHLOROQUINE] | 45900 | – | – | – | – | – | – | – | – | – | – | – | – |
| Cl.Cn1cc(CCN)c2c1C(=O)C1=C(C2=O)S(=O)(=O)C=CN1 | 2310 | soluble | soluble | < 7 | < 7 | > 4.17 | > 4.17 | 1.7 | 40 | 18 | 57 | 128 | Activity (Mus musculus [3]): Toxic; Activity (Mus musculus [4]): Toxic |
| Cl.NCCc1c[nH]c2c1C(=O)C1=C(NC=CS1(=O)=O)C2=O | 1500 | soluble | soluble | 68 | 46 | 0.417 | 0.617 | 4.3 | 60 | 14 | 24 | 104 | IC50 (Plasmodium falciparum [14]): 6.6 nM; IC50 (Plasmodium falciparum [15]): 51 nM; Activity (Mus musculus [16]): Toxic; Activity (Mus musculus [17]): Toxic; Activity (Mus musculus [18]): Toxic; Activity (Mus musculus [19]): Toxic; Activity (Mus musculus [20]): Toxic |
| Cn1cc(CCN)c2c1C(=O)C1=C(NC=CS1(=O)=O)C2=O | 13200 | – | – | – | – | – | – | – | 81 | 32 | 162 | 416 | – |
| CNCCc1c[nH]c2c1C(=O)C1=C(NC=CS1(=O)=O)C2=O.Cl | 1480 | soluble | soluble | 11 | 17 | 2.52 | 1.67 | 3.4 | 31 | 9 | 47 | 160 | – |
| CNCCc1cn(C)c2c1C(=O)C1=C(NC=CS1(=O)=O)C2=O.Cl | 2310 | soluble | soluble | < 7 | < 7 | > 4.17 | > 4.17 | 1.7 | 29 | 17 | 79 | 137 | Activity (Mus musculus [21]): Toxic; Activity (Mus musculus [22]): Toxic; Activity (Mus musculus [23]): Toxic; Activity (Mus musculus [24]): Toxic |

— ChEMBL document CHEMBL3112478, “Total synthesis of thiaplakortone a: derivatives as metabolically stable leads for the treatment of malaria” (ACS Med Chem Lett, 2014)
